Results taken from ChEMBL document CHEMBL6087468, “TKK130 is a 3-Hydroxy-Propanamidine (HPA) with Potent Antimalarial In Vivo Activity and a High Barrier to Resistance” (J Med Chem, 2025).

Assay: Cytotoxicity against human HeLa cells assessed as cell viability measured after 24 hrs by neutral red assay
Assay type: toxicity, cell-based

Cl.N=C(CC(O)c1cc2c(F)cc(F)cc2c2cc(C(F)(F)F)ccc12)Nc1ccc(F)cc1 (stereo unspecified)
IC50 at 24 h: 89.3 µM
